Test results: US12433803B2, “Methods and compositions for studying cell evolution” (THE BROAD INSTITUTE, INC., priority 2017, dated 2025)

Test system: D458 medulloblastoma cells
Assay: Drug resistance experiment: barcoded D458 cells passaged in JQ1, barcode sequencing and deconvolution
Type: cell-based
Settings: FIG. 4; barcoded cells passaged with JQ1 (2 uM per method b225); same barcodes recovered in replicate experiments
Method: Drug resistance experiments—D458 and JQ1. Barcoded D458 medulloblastoma cells (fingerprint verified) cells were treated with DMSO or JQ1 (obtained from Drs Bradner and Qi) at a concentration of 2 uM in multiple replicate plates (5×DMSO and 5× each drug concentration). 4 million cells of barcoded D458 cells were plated in each replicate plate in presence of DMSO or JQ1. Barcoded JQ1 cells were also frozen in 10% DMSO/FCS for future retrievable. In addition, cells were also collected for DNA-extraction to determine barcode representation at the early-time point. Cells were retreated with compound every 3-4 days. Cells were counted, passaged or split every 3-4 days, maintaining a minimum representation of 4 million cells. Cells were cultured in DMSO or JQ1 for a total of […] prior to harvesting for DNA extraction for barcode sequencing and deconvolution.
Library deconvolution. Genomic DNA was extracted and prepared for deep sequencing as in (JJ 2017). Libraries were sequenced to a minimum depth of 18 million reads, corresponding to a barcode coverage of >80×.

SMILES: Cc1sc2c(c1C)C(c1ccc(Cl)cc1)=N[C@@H](CC(=O)OC(C)(C)C)c1nnc(C)n1-2 [JQ1]
- Percentage of barcodes that persist following treatment with JQ1: 5%
